Results published in US4965280A, “Antifungal carbinols” (E. I. Du Pont de Nemours and Company, priority 1989, dated 1990).

Tests used:
[1] = test system: Erysiphe graminis f. sp. tritici; test: Example D wheat powdery mildew; type: in vivo; settings: Blumeria graminis, 144 h; 100 PPM; read-out: disease control rating, Ex. D
Outline: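 Compounds were dissolved in acetone (6% of final volume), then suspended at 100 or 20 ppm in purified water containing 250 ppm TREM 014 surfactant. Wheat seedlings were sprayed with this suspension to run-off.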

Rhizoctonia solani = test: Example F rice sheath blight; type: in vivo; settings: Rhizoctonia solani, 144 h, 100 PPM; read-out: disease control rating, Ex. F
Outline: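 Compounds, dissolved in acetone at 6% of final volume, were suspended at 100 or 20 ppm in purified water with 250 ppm polyhydric alcohol ester surfactant (TREM 014). Rice seedlings were sprayed with this suspension to run-off.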

Puccinia recondita = test: Example G wheat leaf rust; type: in vivo; settings: 100 PPM, read-out: disease control rating, Ex. G
Phytophthora infestans = test: whole plant or invertebrate; type: in vivo; settings: Phytophthora infestans, in Solanum lycopersicum, read-out: disease control rating, Ex. H, 100 PPM
Plasmorpara viticola = test: Example I grape downy mildew; type: in vivo; settings: read-out: disease control rating, Ex. I
Outline: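 Applied as a foliar spray to run-off on grape seedlings, the compounds were formulated at 100 or 20 ppm in water containing 250 ppm TREM 014, with acetone making up 6% of the volume.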

Pythium aphanadermatum = test: Example J cucumber damping off; type: in vivo; settings: Pythium, 336 h; 5 kg/ha; read-out: disease control rating, Ex. J
Outline: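 This cucumber damping-off test used soil and seeds infested with a sand–cereal preparation carrying mycelium of Pythium aphanadermatum. Incubation took place in a growth chamber held at 30° C. for 14 days. Afterwards, the extent of disease was scored as a disease control rating.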

BARNYARDGRASS = test: Test C rice paddy; type: in vivo, Echinochloa crusgalli; settings: Echinochloa crus-galli, 504 h, 21 days, read-out: plant response; for pest or weed control at 64 g/ha: 0064 G/HA; for pest or weed control at 125 g/ha: 0125 G/HA; for pest or weed control at 250 g/ha: 0250 G/HA; for pest or weed control at 500 g/ha: 0500 G/HA
Outline: (§1)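 Transplanted paddy test in flooded silt loam: Japonica and Indica rice at 2.0–2.5 leaf stage, water plantain, Scirpus and Cyperus seedlings or sprouted tubers, barnyardgrass from seed. Water raised to 3 cm 3–4 days after planting; compound in nonphytotoxic solvent added to paddy water within 24 h. Greenhouse.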

ARROWHEAD = test: Test C rice paddy; type: in vivo, Sagittaria spp.; settings: Sagittaria, 504 h, 21 days, read-out: plant response; for pest or weed control at 64 g/ha: 0064 G/HA; for pest or weed control at 125 g/ha: 0125 G/HA; for pest or weed control at 250 g/ha: 0250 G/HA; for pest or weed control at 500 g/ha: 0500 G/HA
Outline: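 In this flooded-paddy assay, rice and weeds grew in saturated silt loam under greenhouse conditions, and the test compound was dosed into the 3 cm standing water shortly after flooding.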

SCIRPUS = test: Test C rice paddy; type: in vivo, Scirpus paludosus; settings: Bolboschoenus maritimus, 504 h, 21 days, read-out: plant response; for pest or weed control at 64 g/ha: 0064 G/HA; for pest or weed control at 125 g/ha: 0125 G/HA; for pest or weed control at 250 g/ha: 0250 G/HA; for pest or weed control at 500 g/ha: 0500 G/HA
Outline: as §1

WATER PLAINTAIN = test: Test C rice paddy; type: in vivo, Alisma trivale; settings: 504 h, 21 days, read-out: plant response; for pest or weed control at 64 g/ha: 0064 G/HA; for pest or weed control at 125 g/ha: 0125 G/HA; for pest or weed control at 250 g/ha: 0250 G/HA; for pest or weed control at 500 g/ha: 0500 G/HA
Outline: as §1

RICE JAP EFF = test: Test C rice paddy; type: in vivo, Japonica rice; settings: Oryza sativa, 504 h, 21 days, read-out: plant response; for pest or weed control at 64 g/ha: 0064 G/HA; for pest or weed control at 125 g/ha: 0125 G/HA; for pest or weed control at 250 g/ha: 0250 G/HA; for pest or weed control at 500 g/ha: 0500 G/HA
Outline: as §1

PURPLE NUTSEDGE = test: Test D; type: in vivo, Cyperus rotundus
LAMBSQUARTER = test: Test D; type: in vivo, Chenopodium album

With `C=C(c1ccccc1)C(O)(Cn1cncn1)c1ccc(Cl)cc1Cl` (stereo not shown) [Example 50, 2-(2,4-Dichlorophenyl)-3-phenyl-1-(1H-1,2,4-triazol-1-yl)-3-buten-2-ol] the pest or weed control at 100 ppm [1] was 95%, the pest or weed control at 100 ppm (Rhizoctonia solani) was 93% and the pest or weed control at 100 ppm (Puccinia recondita) was 100%. For the same compound, the pest or weed control at 100 ppm (Phytophthora infestans) was 0%, the pest or weed control at 100 ppm (Plasmorpara viticola) was 46% and the pest or weed control at 5000 g/ha (Pythium aphanadermatum) was 0%. For the same compound, the pest or weed control at 64 g/ha (BARNYARDGRASS) was 0%, the pest or weed control at 125 g/ha (BARNYARDGRASS) was 0% and the pest or weed control at 250 g/ha (BARNYARDGRASS) was 60%. For the same compound, the pest or weed control at 500 g/ha (BARNYARDGRASS) was 70%, the pest or weed control at 1000 g/ha (BARNYARDGRASS) was 70% and the pest or weed control at 64 g/ha (ARROWHEAD) was 0%. It also gave a pest or weed control at 125 g/ha (ARROWHEAD) of 0%, a pest or weed control at 250 g/ha (ARROWHEAD) of 0% and a pest or weed control at 500 g/ha (ARROWHEAD) of 30%. For the same compound, the pest or weed control at 1000 g/ha (ARROWHEAD) was 50%, the pest or weed control at 64 g/ha (SCIRPUS) was 0% and the pest or weed control at 125 g/ha (SCIRPUS) was 0%. The pest or weed control at 250 g/ha (SCIRPUS) was 0%, the pest or weed control at 500 g/ha (SCIRPUS) was 0% and the pest or weed control at 1000 g/ha (SCIRPUS) was 0%. For the same compound, the pest or weed control at 64 g/ha (WATER PLAINTAIN) was 0%, the pest or weed control at 125 g/ha (WATER PLAINTAIN) was 0% and the pest or weed control at 250 g/ha (WATER PLAINTAIN) was 0%. It also gave a pest or weed control at 500 g/ha (WATER PLAINTAIN) of 0%, a pest or weed control at 1000 g/ha (WATER PLAINTAIN) of 0% and a pest or weed control at 64 g/ha (RICE JAP EFF) of 0%. The pest or weed control at 125 g/ha (RICE JAP EFF) was 0%, the pest or weed control at 250 g/ha (RICE JAP EFF) was 30% and the pest or weed control at 500 g/ha (RICE JAP EFF) was 60%. For the same compound, the pest or weed control at 1000 g/ha (RICE JAP EFF) was 70%, the plant response (PURPLE NUTSEDGE; POSTEMERGENCE 0250 GM/HA) was 0% and the plant response (PURPLE NUTSEDGE; POSTEMERGENCE 0500 GM/HA) was 0%. For the same compound, the plant response (PURPLE NUTSEDGE; PREEMERGENCE 0064 GM/HA) was 0%, the plant response (PURPLE NUTSEDGE; PREEMERGENCE 0125 GM/HA) was 0% and the plant response (PURPLE NUTSEDGE; PREEMERGENCE 0250 GM/HA) was 0%. The plant response (PURPLE NUTSEDGE; PREEMERGENCE 0500 GM/HA) was 30%, the plant response (LAMBSQUARTER; POSTEMERGENCE 0250 GM/HA) was 65% and the plant response (LAMBSQUARTER; POSTEMERGENCE 0500 GM/HA) was 80%. For the same compound, the plant response (LAMBSQUARTER; PREEMERGENCE 0064 GM/HA) was 0%, the plant response (LAMBSQUARTER; PREEMERGENCE 0125 GM/HA) was 35% and the plant response (LAMBSQUARTER; PREEMERGENCE 0250 GM/HA) was 75%. The plant response (LAMBSQUARTER; PREEMERGENCE 0500 GM/HA) was 90%.
`C=C(c1ccccc1Cl)C(O)(Cn1cncn1)c1ccc(F)cc1F` (stereo not shown) [Example 35] was tested, and the pest or weed control at 100 ppm [1] was 100%, the pest or weed control at 100 ppm (Rhizoctonia solani) was 100% and the pest or weed control at 100 ppm (Puccinia recondita) was 96%. The pest or weed control at 100 ppm (Phytophthora infestans) was 0%, the pest or weed control at 100 ppm (Plasmorpara viticola) was 26% and the pest or weed control at 5000 g/ha (Pythium aphanadermatum) was 0%. For the same compound, the pest or weed control at 64 g/ha (BARNYARDGRASS) was 70%, the pest or weed control at 125 g/ha (BARNYARDGRASS) was 100% and the pest or weed control at 250 g/ha (BARNYARDGRASS) was 80%. For the same compound, the pest or weed control at 500 g/ha (BARNYARDGRASS) was 100%, the pest or weed control at 1000 g/ha (BARNYARDGRASS) was 95% and the pest or weed control at 64 g/ha (ARROWHEAD) was 0%. The pest or weed control at 125 g/ha (ARROWHEAD) was 0%, the pest or weed control at 250 g/ha (ARROWHEAD) was 40% and the pest or weed control at 500 g/ha (ARROWHEAD) was 50%. It also gave a pest or weed control at 1000 g/ha (ARROWHEAD) of 95%, a pest or weed control at 64 g/ha (SCIRPUS) of 0% and a pest or weed control at 125 g/ha (SCIRPUS) of 0%. For the same compound, the pest or weed control at 250 g/ha (SCIRPUS) was 0%, the pest or weed control at 500 g/ha (SCIRPUS) was 0% and the pest or weed control at 1000 g/ha (SCIRPUS) was 50%. For the same compound, the pest or weed control at 64 g/ha (WATER PLAINTAIN) was 0%, the pest or weed control at 125 g/ha (WATER PLAINTAIN) was 0% and the pest or weed control at 250 g/ha (WATER PLAINTAIN) was 40%. It also gave a pest or weed control at 500 g/ha (WATER PLAINTAIN) of 40%, a pest or weed control at 1000 g/ha (WATER PLAINTAIN) of 60% and a pest or weed control at 64 g/ha (RICE JAP EFF) of 0%. It also gave a pest or weed control at 125 g/ha (RICE JAP EFF) of 0%, a pest or weed control at 250 g/ha (RICE JAP EFF) of 0% and a pest or weed control at 500 g/ha (RICE JAP EFF) of 0%. It also gave a pest or weed control at 1000 g/ha (RICE JAP EFF) of 20%, a plant response (PURPLE NUTSEDGE; POSTEMERGENCE 0250 GM/HA) of 0% and a plant response (PURPLE NUTSEDGE; POSTEMERGENCE 0500 GM/HA) of 0%. For the same compound, the plant response (PURPLE NUTSEDGE; PREEMERGENCE 0125 GM/HA) was 0%, the plant response (PURPLE NUTSEDGE; PREEMERGENCE 0250 GM/HA) was 0% and the plant response (PURPLE NUTSEDGE; PREEMERGENCE 0500 GM/HA) was 50%. The plant response (LAMBSQUARTER; POSTEMERGENCE 0250 GM/HA) was 0%, the plant response (LAMBSQUARTER; POSTEMERGENCE 0500 GM/HA) was 20% and the plant response (LAMBSQUARTER; PREEMERGENCE 0064 GM/HA) was 30%. The plant response (LAMBSQUARTER; PREEMERGENCE 0125 GM/HA) was 30%, the plant response (LAMBSQUARTER; PREEMERGENCE 0250 GM/HA) was 60% and the plant response (LAMBSQUARTER; PREEMERGENCE 0500 GM/HA) was 80%.
